Results as given in US20080293683A1, “Hormone Replacement Therapy” (University of Kansas Medical Center, priority 2007, published 2008).
Several values for one entry are separate records, joined by “and”; a condition that tells them apart may be missing. Equal entries are not always repeated.

Columns and labels:
recombinant human ERα = target: T1, recombinant human ERα (Homo sapiens, UniProt P03372); assay: ERα binding assay: competition of [3H]E2 binding by competing estrogens; details: for RBAα % (relative binding affinity for ERα, of E2): calculated against E2 = 100; for RBAα/RBAβ determined by extrapolating the curves: extrapolated from curves of FIGS. 3-7, IC50 not reached; for IC50: read-out: ERα IC50; for RBAα/RBAβ: ratio of relative binding affinities ERα over ERβ
T1 construct: purchased PanVera Corporation (Madison, Wis.); host or cells: baculovirus-mediated expression system
T1 sequence (P03372 1-595): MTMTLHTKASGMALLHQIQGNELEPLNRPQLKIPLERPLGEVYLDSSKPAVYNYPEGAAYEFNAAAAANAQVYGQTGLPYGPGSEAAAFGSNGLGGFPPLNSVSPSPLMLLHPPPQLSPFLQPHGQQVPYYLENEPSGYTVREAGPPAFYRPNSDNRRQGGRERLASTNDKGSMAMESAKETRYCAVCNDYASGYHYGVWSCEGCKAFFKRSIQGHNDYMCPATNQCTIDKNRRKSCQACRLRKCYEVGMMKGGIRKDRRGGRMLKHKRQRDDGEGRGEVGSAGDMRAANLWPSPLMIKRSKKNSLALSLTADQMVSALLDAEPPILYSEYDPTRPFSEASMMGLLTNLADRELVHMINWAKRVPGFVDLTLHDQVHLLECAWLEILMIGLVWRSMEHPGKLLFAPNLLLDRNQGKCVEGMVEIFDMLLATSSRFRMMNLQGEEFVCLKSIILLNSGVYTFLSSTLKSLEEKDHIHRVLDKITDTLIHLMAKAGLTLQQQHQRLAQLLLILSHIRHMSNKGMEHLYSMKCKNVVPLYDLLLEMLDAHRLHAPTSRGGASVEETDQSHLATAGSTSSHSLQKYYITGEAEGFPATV
Text: (§1) The recombinant human ERα and ERβ proteins and bovine serum albumin (BSA) were obtained from PanVera Corporation (Madison, Wis.). According to the supplier, the recombinant human ERα and ERβ were produced in a baculovirus-mediated expression system, and they were soluble and functionally active, with post-translational modifications similar to those found in mammalian cells. See Reid et al., Human estrogen receptor-α: Regulation by synthesis, modification and degradation, Cell. Mol. Life.
(§2) The following buffer solutions were used in the ER binding assays, and they were prepared beforehand and stored at 4° C. The binding buffer consisted of 10% glycerol, 2 mM dithiothreitol, 1 mg/mL BSA and 10 mM Tris-HCl at pH 7.5. The ERα washing buffer contained 40 mM Tris-HCl and 100 mM KCl (pH 7.4), but the ERG washing buffer contained only 40 mM Tris-HCl (adjusted to pH 7.4). The 50% hydroxylapatite slurry was prepared first by vigorously mixing 10 g hydroxylapatite with 60 mL of the Tris-HCl solution (50 mM, pH 7.4). Hydroxylapatite was then allowed to settle for 20 minutes at room temperature, and the supernatant was decanted. The above procedures were repeated 10 times, and afterwards hydroxylapatite was kept in the 50 mM Tris-HCl solution overnight at 4° C. Hydroxylapatite slurry was then adjusted to an approximate final concentration of 50% (v/v) using the same Tris-HCl solution and stored at 4° C., and the slurry was stable for up to several months.
(§3) Note that all of the estrogens were initially dissolved in pure ethanol to a stock concentration of 1 mM, and then further diluted to 100 μM with 20% aqueous ethanol. […] Immediately before the addition of the ERα or ERβ protein, it was diluted in the binding buffer and mixed gently with repetitive pipettings. […] The incubation mixture was then mixed gently and thoroughly with repetitive pipettings. […] The binding mixture was incubated at room temperature for two hours. At the end of the incubation, 100 μL of the hydroxylapatite slurry was added to each tube and the tubes were incubated on ice for 15 minutes with 3 times of brief vortexing. An aliquot (1 mL) of the appropriate washing buffer was added, mixed, and centrifuged at 10,000 g for five minutes, and the supernatants were discarded. This wash step was repeated twice. Hydroxylapatite pellets were then resuspended in 200 μL ethanol (followed by another rinse with 200 μL ethanol), and then the content was transferred to scintillation vials (containing 4 mL of the scintillation fluid) for measurement of ^3H-radioactivity with a liquid scintillation counter (Packard Tri-CARB 2900 TR; Downers Grove, Ill.).
(§4) To calculate the specific binding (pmol/mL) of the human ERα or ERβ protein at each concentration point, the following equation was used: […]
(§5) When a lower radioligand concentration is used, the corresponding IC50 value will also be relatively lower, but when the radioligand concentration increases, the corresponding IC50 value will also increase. […] Since the RBA value is a parameter that is independent of the radioligand concentration used, we thus have placed more emphasis on the RBA values instead of the absolute IC50 values in interpreting the physiological meanings of the data from in vitro receptor competition assays.

recombinant human ERβ = target: T2, recombinant human ERβ (Homo sapiens, UniProt Q92731); assay: ERβ binding assay: competition of [3H]E2 binding by competing estrogens; details: for IC50: read-out: ERβ IC50; for RBAβ (%) (relative binding affinity for ERβ, of E2): calculated against E2 = 100
T2 construct: purchased PanVera Corporation (Madison, Wis.); host or cells: baculovirus-mediated expression system
T2 sequence (Q92731 whole entry): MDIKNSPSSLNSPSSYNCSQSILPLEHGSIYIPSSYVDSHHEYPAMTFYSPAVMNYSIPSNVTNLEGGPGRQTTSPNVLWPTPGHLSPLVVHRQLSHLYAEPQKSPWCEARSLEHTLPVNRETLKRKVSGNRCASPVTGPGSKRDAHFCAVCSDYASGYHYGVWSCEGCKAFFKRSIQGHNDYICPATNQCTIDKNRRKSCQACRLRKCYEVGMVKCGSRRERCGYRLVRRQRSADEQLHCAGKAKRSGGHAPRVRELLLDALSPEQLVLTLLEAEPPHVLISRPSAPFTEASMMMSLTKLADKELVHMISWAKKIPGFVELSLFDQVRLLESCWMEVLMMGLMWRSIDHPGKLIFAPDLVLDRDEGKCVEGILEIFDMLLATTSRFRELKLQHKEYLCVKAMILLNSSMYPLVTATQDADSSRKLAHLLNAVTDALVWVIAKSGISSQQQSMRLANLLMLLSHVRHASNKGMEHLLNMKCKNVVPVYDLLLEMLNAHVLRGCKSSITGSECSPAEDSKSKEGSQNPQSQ
Text: as §1, §2, §3, §4, §5

| SMILES | RBAα % (relative binding affinity for ERα, of E2) (recombinant human ERα) | binding affinity for ERα (in words) (recombinant human ERα; concentrations up to 1000 nM) | RBAα/RBAβ determined by extrapolating the curves (recombinant human ERα) | RBAα/RBAβ determined by extrapolating the curves (recombinant human ERα; listed as 2-nitorestrone) | IC50 (recombinant human ERα) | binding affinity for ERβ (in words) (recombinant human ERβ; concentrations up to 1000 nM) | IC50 (recombinant human ERβ) | RBAα/RBAβ (recombinant human ERα) | RBAβ (%) (relative binding affinity for ERβ, of E2) (recombinant human ERβ) | RBAα/RBAβ (recombinant human ERα; listed as 6α-hydroxyestradiol) | RBAα/RBAβ (recombinant human ERα; listed as 4-hydroxyestrone) |
| --- | --- | --- | --- | --- | --- | --- | --- | --- | --- | --- | --- |
| C[C@]12CC[C@@H]3c4cc([N+](=O)[O-])c(O)cc4CC[C@H]3[C@@H]1CCC2=O [2-NO2-E1, 2-Nitroestrone] | 1% | very weak binding affinities | about 3 | ~3 | 1580 nM | very weak binding affinities | > 1000 nM |  |  |  |  |
| C[C@]12C[C@@H](O)[C@@H]3c4ccc(O)cc4CC[C@H]3[C@@H]1CC[C@@H]2O [11α-OH-E2, 11α-Hydroxyestradiol] |  |  |  |  | > 1000 nM |  | > 1000 nM |  |  |  |  |
| C[C@]12CC[C@@H]3c4ccc(O)cc4CC[C@H]3[C@@H]1CC(=O)[C@@H]2O [16-Keto-E2, 16-Ketoestradiol] | 1% |  |  |  | 112 nM |  | 50.1 nM | 0.1 | 18% |  |  |
| C[C@]12CC[C@@H]3c4ccc(O)cc4[C@@H](O)C[C@H]3[C@@H]1CC[C@@H]2O [6α-OH-E2, 6α-Hydroxyestradiol] | 6% |  |  |  | 200 nM |  | 251 nM | 1.5 | 4% | about 1.5 |  |
| CC12CC(O)C3c4ccc(O)cc4CCC3C1CCC2O (stereo not drawn) [11β-OH-E2, 11β-Hydroxyestradiol] |  |  |  |  | > 1000 nM |  | > 1000 nM |  |  |  |  |
| COc1c(O)ccc2c1CC[C@@H]1[C@@H]2CC[C@]2(C)[C@@H](O)[C@H](O)C[C@@H]12 [4-MeO-E3, 4-Methoxyestriol] | 1% |  |  |  | 1260 nM |  | 631 nM | 1 | 1% |  |  |
| CC[C@H](c1ccc(O)cc1)[C@@H](CC)c1ccc(O)cc1 [Hexestrol, reference compound] | 31% |  |  |  | 36.3 nM |  | 18.6 nM | 0.5 | 60% |  |  |
| COc1cc2c(cc1OC)[C@H]1CC[C@]3(C)C(=O)CC[C@H]3[C@@H]1CC2 [2,3-diMeO-E1, Estrone 2,3-dimethyl ether] |  |  |  |  | > 1000 nM |  | > 1000 nM |  |  |  |  |
| Cc1c(O)ccc2c1CC[C@@H]1[C@@H]2CC[C@]2(C)[C@@H](O)CC[C@@H]12 [4-Methyl-E2, 4-Methylestradiol] | 7% and 9% |  |  |  | 126 nM |  | 25.1 nM | 0.3 | 35% |  |  |
| CC12CCC3c4ccc(O)c(O)c4CCC3C1CCC2=O (stereo not drawn) [4-OH-E1, 4-Hydroxyestrone] | 2% |  |  |  | 708 nM |  | 708 nM | 2 | 1% |  | about 2 |
